Results taken from patent US9944602B2, “Piperidinone herbicides” (E. I. DU PONT DE NEMOURS AND COMPANY, priority 2014, dated 2018).

How the values were obtained:
Type in all cases: in vivo
[1] = system: wheat (winter wheat, Triticum aestivum); experiment: Test C preemergence wheat; conditions: Table C, scale 0 to 100
Excerpt: (§1) Seeds of plant species selected from blackgrass (Alopecurus myosuroides), ryegrass, Italian (Italian ryegrass, Lolium multiflorum), wheat (winter wheat, Triticum aestivum), galium (catchweed bedstraw, Galium aparine), corn (Zea mays), crabgrass, large (large crabgrass, Digitaria sanguinalis), foxtail, giant (giant foxtail, Setaria faberii), johnsongrass (Sorghum halepense), lambsquarters (Chenopodium album), morningglory (Ipomoea coccinea), yellow (yellow nutsedge, Cyperus esculentus), pigweed (Amaranthus retroflexus), ragweed (common ragweed, Ambrosia elatior), soybean (Glycine max), barnyardgrass (Echinochloa crus-galli), oilseed rape (Brassica napus), waterhemp (common waterhemp, Amaranthus rudis), and velvetleaf (Abutilon theophrasti) were planted into a blend of loam soil and sand and treated preemergence with test chemicals formulated in a non-phytotoxic solvent mixture which included a surfactant. At the same time, plants selected from these crop and weed species and also chickweed (common chickweed, Stellaria media), kochia (Kochia scoparia), and oat, wild (wild oat, Avena fatua) were planted in pots containing Sunshine Redi-Earth® planting medium comprising spaghnum peat moss, vermiculite, starter nutrients and dolomitic limestone and treated with postemergence applications of test chemicals formulated in the same manner. Plants ranged in height from 2 to 18 cm (1- to 4-leaf stage) for postemergence treatments. Treated plants and controls were maintained in a greenhouse for 13 to 15 days, after which time all species were compared to controls and visually evaluated. Plant response ratings, summarized in Table C, are based on a scale of 0 to 100 where 0 is no effect and 100 is complete control. A dash (-) response means no test result.

[2] = system: galium (catchweed bedstraw, Galium aparine); experiment: Test C preemergence galium; conditions: Table C, scale 0 to 100
Excerpt: as §1

[3] = system: foxtail, giant (giant foxtail, Setaria faberii); experiment: Test C preemergence foxtail, giant; conditions: Table C, scale 0 to 100
Excerpt: as §1

[4] = system: lambsquarters (Chenopodium album); experiment: Test C preemergence lambsquarters; conditions: Table C, scale 0 to 100
Excerpt: as §1

[5] = system: ragweed (common ragweed, Ambrosia elatior); experiment: Test C preemergence ragweed; conditions: Table C, scale 0 to 100
Excerpt: as §1

[6] = system: waterhemp (common waterhemp, Amaranthus rudis); experiment: Test C preemergence waterhemp; conditions: Table C, scale 0 to 100
Excerpt: as §1

[7] = system: ryegrass, Italian (Italian ryegrass, Lolium multiflorum); experiment: Test C postemergence ryegrass, Italian; conditions: Table C, scale 0 to 100
Excerpt: as §1

[8] = system: wheat (winter wheat, Triticum aestivum); experiment: Test C postemergence wheat; conditions: Table C, scale 0 to 100
Excerpt: as §1

[9] = system: corn (Zea mays); experiment: Test C postemergence corn; conditions: Table C, scale 0 to 100
Excerpt: as §1

[10] = system: crabgrass, large (large crabgrass, Digitaria sanguinalis); experiment: Test C postemergence crabgrass, large; conditions: Table C, scale 0 to 100
Excerpt: as §1

[11] = system: pigweed (Amaranthus retroflexus); experiment: Test C postemergence pigweed; conditions: Table C, scale 0 to 100
Excerpt: as §1

[12] = system: ragweed (common ragweed, Ambrosia elatior); experiment: Test C postemergence ragweed; conditions: Table C, scale 0 to 100
Excerpt: as §1

[13] = system: velvetleaf (Abutilon theophrasti); experiment: Test C postemergence velvetleaf; conditions: Table C, scale 0 to 100
Excerpt: as §1

[14] = system: oat, wild (wild oat, Avena fatua); experiment: Test C postemergence oat, wild; conditions: Table C, scale 0 to 100
Excerpt: as §1

[15] = system: velvetleaf (Abutilon theophrasti); experiment: Test A preemergence velvetleaf; conditions: 0 to 100 scale, 0 no effect, 100 complete control
Method in brief: (§2)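 Greenhouse pot test: chemicals formulated with surfactant in non-phytotoxic solvent, sprayed on soil at seeding (pre) or on 1–2 leaf seedlings of 2–10 cm (post). Rating ~10 d later, visual, 0 = no effect to 100 = complete control, relative to untreated controls.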

[16] = system: wheat (Triticum aestivum); experiment: Test A preemergence wheat; conditions: 0 to 100 scale, 0 no effect, 100 complete control
Method in brief: as §2

[17] = system: crabgrass, large (large crabgrass, Digitaria sanguinalis); experiment: Test A postemergence crabgrass, large; conditions: 0 to 100 scale, 0 is no effect, 100 is complete control
Method in brief: as §2

[18] = system: morningglory (Ipomoea spp.); experiment: Test A postemergence morningglory; conditions: 0 to 100 scale, 0 is no effect, 100 is complete control
Method in brief: as §2

[19] = system: velvetleaf (Abutilon theophrasti); experiment: Test A postemergence velvetleaf; conditions: 0 to 100 scale, 0 is no effect, 100 is complete control
Method in brief: as §2

Compound `O=C1NCCC(c2cccc(C(F)(F)F)c2)C1C(=O)Nc1ccc(F)c(F)c1F` (racemic) [Compound 28] has a Plant response rating ([1]; 31 g ai/ha) of 0, a Plant response rating ([1]; 62 g ai/ha) of 0 and a Plant response rating ([1]; 125 g ai/ha) of 0. The Plant response rating ([1]; 250 g ai/ha) was 10, the Plant response rating ([2]; 31 g ai/ha) was 0 and the Plant response rating ([3]; 31 g ai/ha) was 60. For the same compound, the Plant response rating ([3]; 62 g ai/ha) was 85, the Plant response rating ([3]; 125 g ai/ha) was 95 and the Plant response rating ([3]; 250 g ai/ha) was 95. It also gave a Plant response rating ([4]; 31 g ai/ha) of 5, a Plant response rating ([4]; 62 g ai/ha) of 5 and a Plant response rating ([4]; 125 g ai/ha) of 5. The Plant response rating ([4]; 250 g ai/ha) was 15, the Plant response rating ([5]; 31 g ai/ha) was 0 and the Plant response rating ([5]; 62 g ai/ha) was 0. The Plant response rating ([5]; 125 g ai/ha) was 0, the Plant response rating ([5]; 250 g ai/ha) was 0 and the Plant response rating ([6]; 31 g ai/ha) was 0. The Plant response rating ([6]; 125 g ai/ha) was 0 and the Plant response rating ([6]; 250 g ai/ha) was 60.

`O=C1NCCC(c2cccc(C(F)(F)F)c2)C1C(=O)Nc1ccccc1Cl` (racemic) [Compound 17] was tested, and the Plant response rating ([7]; 31 g ai/ha) was 0, the Plant response rating ([7]; 62 g ai/ha) was 0 and the Plant response rating ([7]; 125 g ai/ha) was 0. The Plant response rating ([7]; 250 g ai/ha) was 0, the Plant response rating ([8]; 31 g ai/ha) was 0 and the Plant response rating ([8]; 62 g ai/ha) was 0. The Plant response rating ([8]; 125 g ai/ha) was 0, the Plant response rating ([8]; 250 g ai/ha) was 0 and the Plant response rating ([9]; 31 g ai/ha) was 0. The Plant response rating ([9]; 62 g ai/ha) was 0, the Plant response rating ([9]; 125 g ai/ha) was 0 and the Plant response rating ([9]; 250 g ai/ha) was 0. For the same compound, the Plant response rating ([10]; 31 g ai/ha) was 5, the Plant response rating ([10]; 62 g ai/ha) was 20 and the Plant response rating ([10]; 125 g ai/ha) was 20. The Plant response rating ([10]; 250 g ai/ha) was 55, the Plant response rating ([11]; 31 g ai/ha) was 0 and the Plant response rating ([11]; 62 g ai/ha) was 0. The Plant response rating ([11]; 125 g ai/ha) was 0, the Plant response rating ([11]; 250 g ai/ha) was 5 and the Plant response rating ([12]; 31 g ai/ha) was 0. For the same compound, the Plant response rating ([12]; 62 g ai/ha) was 0, the Plant response rating ([12]; 125 g ai/ha) was 0 and the Plant response rating ([12]; 250 g ai/ha) was 0. The Plant response rating ([13]; 31 g ai/ha) was 0, the Plant response rating ([13]; 62 g ai/ha) was 0 and the Plant response rating ([13]; 125 g ai/ha) was 0. It also gave a Plant response rating ([13]; 250 g ai/ha) of 0, a Plant response rating ([14]; 31 g ai/ha) of 0 and a Plant response rating ([14]; 62 g ai/ha) of 0. It also gave a Plant response rating ([14]; 125 g ai/ha) of 0 and a Plant response rating ([14]; 250 g ai/ha) of 0.

In the case of `O=C1NCCC(c2cccc(C(F)(F)F)c2)C1C(=O)Nc1cccc(F)c1F` (centres unmarked) [Compound 9, N-(2,3-difluorophenyl)-2-oxo-4-[3-(trifluoromethyl)phenyl]-3-piperidinecarboxamide], the “Velvetleaf plant response rating” value ([15]; 125 g ai/ha) is reported as 0, the “Velvetleaf plant response rating” value ([15]; 500 g ai/ha) is reported as 0 and the “Wheat plant response rating” value ([16]; 125 g ai/ha) is reported as 20. For the same compound, the “Wheat plant response rating” value ([16]; 500 g ai/ha) was 50, the “Plant response rating, Crabgrass, Large” value ([17]; 125 g ai/ha) was 80 and the “Plant response rating, Crabgrass, Large” value ([17]; 500 g ai/ha) was 90. For the same compound, the “Plant response rating, Morningglory” value ([18]; 125 g ai/ha) was 0, the “Plant response rating, Morningglory” value ([18]; 500 g ai/ha) was 40 and the “Plant response rating, Velvetleaf” value ([19]; 125 g ai/ha) was 0. For the same compound, the “Plant response rating, Velvetleaf” value ([19]; 500 g ai/ha) was 0, the Plant response rating ([1]; 31 g ai/ha) was 0 and the Plant response rating ([1]; 62 g ai/ha) was 30. It also gave a Plant response rating ([1]; 125 g ai/ha) of 55, a Plant response rating ([1]; 250 g ai/ha) of 70 and a Plant response rating ([2]; 31 g ai/ha) of 0. The Plant response rating ([2]; 62 g ai/ha) was 0, the Plant response rating ([2]; 125 g ai/ha) was 0 and the Plant response rating ([2]; 250 g ai/ha) was 75. It also gave a Plant response rating ([3]; 31 g ai/ha) of 90, a Plant response rating ([3]; 62 g ai/ha) of 95 and a Plant response rating ([3]; 125 g ai/ha) of 95. For the same compound, the Plant response rating ([3]; 250 g ai/ha) was 98, the Plant response rating ([4]; 31 g ai/ha) was 0 and the Plant response rating ([4]; 62 g ai/ha) was 0. The Plant response rating ([4]; 125 g ai/ha) was 0, the Plant response rating ([4]; 250 g ai/ha) was 0 and the Plant response rating ([5]; 31 g ai/ha) was 0. It also gave a Plant response rating ([5]; 62 g ai/ha) of 0, a Plant response rating ([5]; 125 g ai/ha) of 10 and a Plant response rating ([5]; 250 g ai/ha) of 20. For the same compound, the Plant response rating ([6]; 31 g ai/ha) was 15, the Plant response rating ([6]; 62 g ai/ha) was 0 and the Plant response rating ([6]; 125 g ai/ha) was 20. It also gave a Plant response rating ([6]; 250 g ai/ha) of 0, a Plant response rating ([7]; 31 g ai/ha) of 0 and a Plant response rating ([7]; 62 g ai/ha) of 0. For the same compound, the Plant response rating ([7]; 125 g ai/ha) was 0, the Plant response rating ([7]; 250 g ai/ha) was 0 and the Plant response rating ([8]; 31 g ai/ha) was 0. It also gave a Plant response rating ([8]; 62 g ai/ha) of 0, a Plant response rating ([8]; 125 g ai/ha) of 0 and a Plant response rating ([8]; 250 g ai/ha) of 0. It also gave a Plant response rating ([9]; 31 g ai/ha) of 0, a Plant response rating ([9]; 62 g ai/ha) of 0 and a Plant response rating ([9]; 125 g ai/ha) of 0. The Plant response rating ([9]; 250 g ai/ha) was 0, the Plant response rating ([10]; 31 g ai/ha) was 0 and the Plant response rating ([10]; 62 g ai/ha) was 35. It also gave a Plant response rating ([10]; 125 g ai/ha) of 75, a Plant response rating ([10]; 250 g ai/ha) of 75 and a Plant response rating ([11]; 31 g ai/ha) of 0. The Plant response rating ([11]; 62 g ai/ha) was 0, the Plant response rating ([11]; 125 g ai/ha) was 5 and the Plant response rating ([11]; 250 g ai/ha) was 5. The Plant response rating ([12]; 31 g ai/ha) was 0, the Plant response rating ([12]; 62 g ai/ha) was 0 and the Plant response rating ([12]; 125 g ai/ha) was 0. It also gave a Plant response rating ([12]; 250 g ai/ha) of 5, a Plant response rating ([13]; 31 g ai/ha) of 0 and a Plant response rating ([13]; 62 g ai/ha) of 0. For the same compound, the Plant response rating ([13]; 125 g ai/ha) was 0, the Plant response rating ([13]; 250 g ai/ha) was 0 and the Plant response rating ([14]; 31 g ai/ha) was 0. The Plant response rating ([14]; 62 g ai/ha) was 0, the Plant response rating ([14]; 125 g ai/ha) was 0 and the Plant response rating ([14]; 250 g ai/ha) was 0.

For `O=C1NCCC(c2cccc(C(F)(F)F)c2)C1C(=O)Nc1ccccc1C(F)(F)F` (centres unmarked) [Compound 10, 2-oxo-N-[2-(trifluoromethyl)phenyl)-4-[3-(trifluoromethyl)phenyl]-3-piperidinecarboxamide], the “Velvetleaf plant response rating” value ([15]; 125 g ai/ha) was 0, the “Velvetleaf plant response rating” value ([15]; 500 g ai/ha) was 0 and the “Wheat plant response rating” value ([16]; 125 g ai/ha) was 0. For the same compound, the “Wheat plant response rating” value ([16]; 500 g ai/ha) was 0, the “Plant response rating, Crabgrass, Large” value ([17]; 125 g ai/ha) was 60 and the “Plant response rating, Crabgrass, Large” value ([17]; 500 g ai/ha) was 80. For the same compound, the “Plant response rating, Morningglory” value ([18]; 125 g ai/ha) was 0, the “Plant response rating, Morningglory” value ([18]; 500 g ai/ha) was 0 and the “Plant response rating, Velvetleaf” value ([19]; 125 g ai/ha) was 0. The “Plant response rating, Velvetleaf” value ([19]; 500 g ai/ha) was 0.
